Details of data set [1]: species or system male Sprague Dawley rats. The note with it: rat, in vivo, 0.25 mg/kg, 300 min. An excerpt:
(§1) Two animal species were used, i.e., rats and rabbits.
(§2) Monosialotetrahexosylganglioside GM1 labeled on the sphingosine moiety according to the method of Tettamanti et al. (in "Gangliosides in Neurological and Neuromuscular Function, Development and Repair" Eds. M. M. Rapport, A. Gorio, Raven Press. (N.Y.) 1981, p. 225-240) was used as a representative ganglioside molecule.
(§3) The ganglioside mixture used was similar to the natural mixture that is obtained by extraction and purification from bovine cerebral cortex. The mixture was made up by compounding the single ganglioside fractions in the following percent proportions:
(§4) The monosialotetrahexosylganglioside GM1 contained a ^3 H-label on sphingosine as specified under item (a) as a tracer for the mixture.
(§5) Labeled inner ester derivative of monosialoganglioside was obtained from monosialoganglioside labeled on the sphingosine moiety according to the method cited under item (a). The inner esterification procedure according to the method described in applicant's co-pending U.S. application Ser. No. 290,106, filed on Aug. 4, 1981, was used for this labeled ganglioside to obtain the labeled inner ester derivative. […]
(§6) After treatment the animals were housed in metabolic cages. […] The total radioactivity of the samples was counted by means of a Tricarb scintillator (Packard). […]

On the set-up of data set [2]: species or system male New Zealand rabbits. The note with it: rabbit, in vivo, 0.25 mg/kg, 300 min.
From the text: as §1, §2, §3, §4, §5, §6

On the set-up of data set [3]: species or system male Sprague Dawley rats. Particulars: rat, in vivo, 0.25 mg/kg, 300 min.
From the text: as §1, §2, §3, §4
(§7) Labeled inner ester derivative of monosialoganglioside was obtained from monosialoganglioside labeled on the sphingosine moiety according to the method cited under item (a). The inner esterification procedure according to the method described in applicant's co-pending U.S. application Ser. No. 290,106, filed on Aug. […]
After treatment the animals were housed in metabolic cages. […] The total radioactivity of the samples was counted by means of a Tricarb scintillator (Packard).
(§8) However, increased pulmonary absorption of the compounds after nebulization of the aqueous solutions was recorded (See Table 2).
The source holds these as a separate data set.

On the set-up of data set [4]: species or system male New Zealand rabbits. The note with it: rabbit, in vivo, 0.25 mg/kg, 300 min.
From the text: as §1, §2, §3, §4, §7, §6, §8
The source holds these as a separate data set.

On the set-up of data set [5]: species or system male Sprague Dawley rats. The note with it: rat, in vivo, 0.25 mg/kg, 300 min.
From the text: as §1, §2, §3, §4, §5, §6
The source holds these as a separate data set.

On the set-up of data set [6]: species or system male New Zealand rabbits. The note with it: rabbit, in vivo, 0.25 mg/kg, 300 min.
From the text: as §1, §2, §3, §4, §5, §6
The source holds these as a separate data set.

Where two headings read alike, the source gives them in different places.

Turning to `CCCCCCCCCCCCC/C=C/[C@@H](O)[C@H](CO[C@@H]1O[C@H](CO)[C@@H](O[C@@H]2O[C@H](CO)[C@H](O[C@@H]3O[C@H](CO)[C@H](O)[C@H](O[C@@H]4O[C@H](CO)[C@H](O)[C@H](O)[C@H]4O)[C@H]3NC(C)=O)[C@@H]3O[C@@]4(C[C@H](O)[C@@H](NC(C)=O)[C@H]([C@H](O)[C@H](O)CO)O4)C(=O)O[C@@H]23)[C@H](O)[C@H]1O)NC(=O)CCCCCCCCCCCCCCCCC` [Monosialoganglioside inner ester], the “Bioavailability (Intramuscular route = 100)” value amounted to 12% in data set [1]; 11.5% in data set [2]; 35% in data set [3]; 33.5% in data set [4]; 80 in data set [5]; 85 in data set [6].

For the compound “Monosialotetrahexosylganglioside GM1 [Monosialoganglioside]”, the “Bioavailability (Intramuscular route = 100)” value in data set [1] turned out to be 10.5%; in data set [2], 12%; in data set [3], 34%; in data set [4], 32%; in data set [5], 85; in data set [6], 87.

Values taken from US4639437A, “Kit or device and method for administering gangliosides and derivatives thereof by inhalation and pharmaceutical compositions suitable therefor” (Fidia, S.p.A., priority 1984, dated 1987).
